For one assay, the target named is rat mGlu3 (Rattus norvegicus (Rat), UniProt P31422). The experiment in a line: mGlu3 Ca2+ flux assay. It is filed as cell-based. Particulars: for IC50: read-out: rat mGlu3 IC50; for remaining activity at 30 µM: amplitude of response at 30 μM test compound as % of maximal response to glutamate, read-out: rat mGlu3 Glu max (%). The essentials:
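Cells expressing rat mGlu3 were grown overnight at 37° C. under 5% CO2, then loaded with dye. After dye removal they received 20 μL of assay buffer and sat 10 minutes at room temperature. Calcium flux was read on a Hamamatsu FDSS7000, and fluorescence was expressed as fold over basal and normalized to the maximal glutamate response.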
(Calcium assays in cells follow changes in intracellular calcium, usually with a dye or a luminescent sensor.)

In another assay the target is rat mGlu5 (Rattus norvegicus (Rat), UniProt P31424). The assay can be described thus: mGlu5 Ca2+ flux assay. Particulars: for Fold selectivity (mGlu3 vs. mGlu5): ratio of rat mGlu5 EC50 or IC50 to rat mGlu3 IC50; for EC50 / IC50: read-out: rat mGlu5 EC50 or IC50; for IC50: glutamate EC80; for Emax at 30 µM: read-out: rat mGlu5 Glu max (%). It is filed as cell-based. An outline of the steps:
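Transfected cells grown overnight at 37° C/5% CO2, dye-loaded, then 5 min in assay buffer at RT before Ca2+ flux read on FDSS7000. Fluorescence as F/F0 fold over basal, normalized to maximal glutamate response; EC50 from unconstrained 4-parameter logistic fit, triplicates weighted evenly.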

Where [1] appears, read: NAM potency, decrease of glutamate EC80 response, >30,000 = no measurable activity, >10,000 = no plateau.
Where [2] appears, read: compound noted as NAM or partial antagonist (PAnt) at mGlu5.
[3] abbreviates: compound noted as NAM or partial antagonist (PAnt) at mGlu5, response at 30 μM as % of maximal glutamate response.
The mark [4] stands for this setting: PAM, amplitude of response at 30 μM test compound as % of maximal response to glutamate.

SMILES strings stand for the structures. Where two headings read alike, the source gives them in different places. A value given as a limit tells only on which side of the number the result lay.

Sequence of rat mGlu3 (P31422 23-879): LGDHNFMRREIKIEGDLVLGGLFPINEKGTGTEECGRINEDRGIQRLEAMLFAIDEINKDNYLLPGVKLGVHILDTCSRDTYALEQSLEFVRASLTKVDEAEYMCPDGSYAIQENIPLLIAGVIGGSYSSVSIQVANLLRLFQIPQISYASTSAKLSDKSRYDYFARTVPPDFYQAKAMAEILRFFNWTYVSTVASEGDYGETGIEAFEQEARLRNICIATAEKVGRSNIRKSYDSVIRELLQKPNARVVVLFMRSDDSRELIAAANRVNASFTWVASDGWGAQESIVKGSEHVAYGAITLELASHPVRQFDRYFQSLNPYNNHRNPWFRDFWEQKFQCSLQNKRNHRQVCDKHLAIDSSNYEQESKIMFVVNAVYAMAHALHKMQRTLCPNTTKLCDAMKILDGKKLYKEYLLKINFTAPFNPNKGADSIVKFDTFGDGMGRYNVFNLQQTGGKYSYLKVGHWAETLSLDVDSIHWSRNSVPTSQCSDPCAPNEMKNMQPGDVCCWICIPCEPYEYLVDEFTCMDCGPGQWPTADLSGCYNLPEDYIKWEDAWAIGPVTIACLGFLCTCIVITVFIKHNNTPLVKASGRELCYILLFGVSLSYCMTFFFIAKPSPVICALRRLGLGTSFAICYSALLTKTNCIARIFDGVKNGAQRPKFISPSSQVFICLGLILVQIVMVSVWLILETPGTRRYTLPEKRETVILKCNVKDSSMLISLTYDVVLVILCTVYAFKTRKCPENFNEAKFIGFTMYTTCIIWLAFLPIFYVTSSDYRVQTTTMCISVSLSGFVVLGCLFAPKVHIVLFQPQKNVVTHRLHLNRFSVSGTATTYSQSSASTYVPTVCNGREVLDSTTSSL
Sequence of rat mGlu5 (P31424 21-1203): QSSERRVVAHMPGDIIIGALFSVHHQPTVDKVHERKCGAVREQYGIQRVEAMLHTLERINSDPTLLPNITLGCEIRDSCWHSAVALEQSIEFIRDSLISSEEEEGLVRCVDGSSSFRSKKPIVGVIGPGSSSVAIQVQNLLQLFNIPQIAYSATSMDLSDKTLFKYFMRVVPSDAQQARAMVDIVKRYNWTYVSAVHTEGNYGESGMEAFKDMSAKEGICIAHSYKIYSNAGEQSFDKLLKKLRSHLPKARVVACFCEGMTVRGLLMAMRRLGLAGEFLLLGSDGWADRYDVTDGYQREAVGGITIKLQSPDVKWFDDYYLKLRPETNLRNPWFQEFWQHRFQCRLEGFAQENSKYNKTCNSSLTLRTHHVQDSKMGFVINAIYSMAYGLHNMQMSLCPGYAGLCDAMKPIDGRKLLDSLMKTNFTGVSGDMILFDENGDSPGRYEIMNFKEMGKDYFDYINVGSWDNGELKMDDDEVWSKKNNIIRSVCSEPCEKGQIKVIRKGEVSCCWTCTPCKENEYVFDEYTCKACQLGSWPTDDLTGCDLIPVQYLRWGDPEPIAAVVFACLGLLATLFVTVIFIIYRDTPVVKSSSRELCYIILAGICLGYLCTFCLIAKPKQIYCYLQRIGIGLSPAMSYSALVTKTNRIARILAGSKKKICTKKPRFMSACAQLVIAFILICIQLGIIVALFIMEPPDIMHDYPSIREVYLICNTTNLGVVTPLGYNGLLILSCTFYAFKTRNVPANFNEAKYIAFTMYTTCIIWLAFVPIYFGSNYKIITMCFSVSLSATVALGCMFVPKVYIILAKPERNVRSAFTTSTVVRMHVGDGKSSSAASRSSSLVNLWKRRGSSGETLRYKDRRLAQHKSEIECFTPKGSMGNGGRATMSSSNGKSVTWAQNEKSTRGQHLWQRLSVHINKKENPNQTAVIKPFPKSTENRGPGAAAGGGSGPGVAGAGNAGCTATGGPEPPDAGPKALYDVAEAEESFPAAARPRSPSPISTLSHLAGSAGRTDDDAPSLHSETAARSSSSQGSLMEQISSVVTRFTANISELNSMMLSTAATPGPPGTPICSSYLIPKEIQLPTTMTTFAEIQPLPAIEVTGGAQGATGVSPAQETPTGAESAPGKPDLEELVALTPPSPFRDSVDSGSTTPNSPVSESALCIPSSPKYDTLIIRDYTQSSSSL

For the molecule `O=C1c2cc(CNc3ccc(OC(F)F)cc3)nn2CCN1c1ccc(F)cc1` [Compound 20, 2-(((4-(difluoromethoxy)phenyl)amino)methyl)-5-(4-fluorophenyl)-6,7-dihydropyrazolo[1,5-a]pyrazin-4(5H)-one], the IC50 (in general, the concentration that inhibits the measured activity by half) on rat mGlu3 (setting [1]) was determined as 709 nM. The remaining activity at 30 µM at rat mGlu3 was 2.9%. Further, on rat mGlu5, the “Fold selectivity (mGlu3 vs. mGlu5)” value was above 42 and the EC50 (as a rule, the concentration giving half of the maximal effect) was above 30000 nM.
Consider `CN(Cc1cc2n(n1)CCN(c1ccc(F)cc1)C2=O)c1ccccc1Cl` [Compound 84, 2-(((2-chlorophenyl)(methyl)amino)methyl)-5-(4-fluorophenyl)-6,7-dihydropyrazolo[1,5-a]pyrazin-4(5H)-one], for which the IC50 on rat mGlu3 (setting [1]) was 1860 nM; on rat mGlu5 (setting [2]), above 10000 nM. For the same molecule, at rat mGlu3, the remaining activity at 30 µM worked out at 0.82%. Further, at rat mGlu5 (setting [3]), the Emax at 30 µM was 73.4%. For the same molecule, the “Fold selectivity (mGlu3 vs. mGlu5)” value on rat mGlu5 is recorded as above 5.3.
With `C[C@@H]1CN(c2ccc(F)cc2)C(=O)c2cc(CNc3ccc(F)cc3F)nn21` [Compound 75, (R)-2-(((2,4-difluorophenyl)amino)methyl)-5-(4-fluorophenyl)-7-methyl-6,7-dihydropyrazolo[1,5-a]pyrazin-4(5H)-one], at rat mGlu3 (setting [1]), the IC50 was determined as 771 nM. Also, the remaining activity at 30 µM at rat mGlu3 came to 2.66%. The Emax at 30 µM at rat mGlu5 (setting [4]) came to 85.6%. For the same molecule, on rat mGlu5, the “Fold selectivity (mGlu3 vs. mGlu5)” value came to 7.56 and the EC50 was 5830 nM.
As for `N#Cc1cccc(NCc2cc3n(n2)CCN(c2ccc(F)cc2)C3=O)c1` [Compound 11, 3-(((5-(4-fluorophenyl)-4-oxo-4,5,6,7-tetrahydropyrazolo[1,5-a]pyrazin-2-yl)methyl)amino)benzonitrile], the IC50 on rat mGlu3 (setting [1]) came to 1250 nM. Also, the remaining activity at 30 µM on rat mGlu3 is 1.48%. For the same molecule, on rat mGlu5, the “Fold selectivity (mGlu3 vs. mGlu5)” value is given as above 24 and the EC50 was above 30000 nM.
As to `Cc1cnc(N2CCn3nc(CNc4ccc(OC(F)F)cc4F)cc3C2=O)s1` [Compound 137, 2-(((4-(difluoromethoxy)-2-fluorophenyl)amino)methyl)-5-(5-methylthiazol-2-yl)-6,7-dihydropyrazolo[1,5-a]pyrazin-4(5H)-one], the IC50 on rat mGlu3 was above 30000 nM. In addition, the EC50 on rat mGlu5 was above 30000 nM.
As for `COc1ccc(N(C)Cc2cc3n(n2)CCN(c2cccc(F)c2Cl)C3=O)cc1` [Compound 126, 5-(2-chloro-3-fluorophenyl)-2-(((4-methoxyphenyl)(methyl)amino)methyl)-6,7-dihydropyrazolo[1,5-a]pyrazin-4(5H)-one], the IC50 at rat mGlu3 (setting [1]) was 1600 nM; on rat mGlu5 (setting [2]) it was above 10000 nM. Further, on rat mGlu3, the remaining activity at 30 µM is 1.5%. Also, the Emax at 30 µM at rat mGlu5 (setting [3]) was determined as 56.8%. Further, the “Fold selectivity (mGlu3 vs. mGlu5)” value at rat mGlu5 is above 6.2.
As to `COc1ccc(N(C)Cc2cc3n(n2)CCN(c2cccc(Cl)c2F)C3=O)cc1` [Compound 135, 5-(3-chloro-2-fluorophenyl)-2-(((4-methoxyphenyl)(methyl)amino)methyl)-6,7-dihydropyrazolo[1,5-a]pyrazin-4(5H)-one], at rat mGlu3 (setting [1]), the IC50 was determined as 1210 nM. On rat mGlu3, the remaining activity at 30 µM was determined as 7.26%. Further, at rat mGlu5, the “Fold selectivity (mGlu3 vs. mGlu5)” value was above 24 and the EC50 is above 30000 nM.
The matching figures for `Cc1ccc(NCc2cc3n(n2)[C@H](C)CN(c2ccc(F)cc2)C3=O)cc1` [Compound 58, (R)-5-(4-fluorophenyl)-7-methyl-2-((p-tolylamino)methyl)-6,7-dihydropyrazolo[1,5-a]pyrazin-4(5H)-one]: 1830 nM, 1.27%, above 16 and above 30000 nM.
As for `COc1ccc(N(C)Cc2cc3n(n2)CCN(c2ccc(Cl)cn2)C3=O)cc1` [Compound 124, 5-(5-chloropyridin-2-yl)-2-(((4-methoxyphenyl)(methyl)amino)methyl)-6,7-dihydropyrazolo[1,5-a]pyrazin-4(5H)-one], at rat mGlu3 (setting [1]), the IC50 turned out to be 917 nM. Further, the remaining activity at 30 µM on rat mGlu3 stood at 1.64%. Further, on rat mGlu5, the “Fold selectivity (mGlu3 vs. mGlu5)” value is recorded as above 32 and the EC50 was above 30000 nM.
With `C[C@@H]1CN(c2ccc(F)cc2)C(=O)c2cc(CNc3ccc(Cl)cc3)nn21` [Compound 60, (R)-2-(((4-chlorophenyl)amino)methyl)-5-(4-fluorophenyl)-7-methyl-6,7-dihydropyrazolo[1,5-a]pyrazin-4(5H)-one], the IC50 on rat mGlu3 (setting [1]) stood at 1250 nM. The remaining activity at 30 µM on rat mGlu3 worked out at 0.56%. Also, the Emax at 30 µM on rat mGlu5 (setting [4]) worked out at 31.5%. Also, at rat mGlu5, the “Fold selectivity (mGlu3 vs. mGlu5)” value was above 8.0 and the EC50 was above 10000 nM.
The matching figures for `C[C@@H]1CN(c2ccc(F)cc2)C(=O)c2cc(CNc3c(F)cc(F)cc3F)nn21` [Compound 79, (R)-5-(4-fluorophenyl)-7-methyl-2-(((2,4,6-trifluorophenyl)amino)methyl)-6,7-dihydropyrazolo[1,5-a]pyrazin-4(5H)-one]: 1280 nM, 1.49%, 40%, above 7.8 and above 10000 nM.
Consider `CN(Cc1cc2n(n1)CCN(c1ccc(F)cc1)C2=O)c1ccc(Cl)cc1` [Compound 90, 2-(((4-chlorophenyl)(methyl)amino)methyl)-5-(4-fluorophenyl)-6,7-dihydropyrazolo[1,5-a]pyrazin-4(5H)-one], for which the IC50 on rat mGlu3 (setting [1]) was determined as 885 nM. Moreover, the remaining activity at 30 µM at rat mGlu3 was found to be 1.4%. Further, at rat mGlu5 (setting [4]), the Emax at 30 µM worked out at 87.3%. Besides, at rat mGlu5, the “Fold selectivity (mGlu3 vs. mGlu5)” value was found to be 5.08 and the concentration for a half-maximal effect (EC50) stood at 4500 nM.
With `COc1ccc(N(C)Cc2cc3n(n2)CCN(c2cccc(C#N)c2)C3=O)cc1` [Compound 116, 3-(2-(((4-methoxyphenyl)(methyl)amino)methyl)-4-oxo-6,7-dihydropyrazolo[1,5-a]pyrazin-5(4H)-yl)benzonitrile], on rat mGlu3 (setting [1]), the IC50 came out at 2210 nM. In addition, the remaining activity at 30 µM on rat mGlu3 amounted to 1.55%. On rat mGlu5, the “Fold selectivity (mGlu3 vs. mGlu5)” value is given as above 13 and the EC50 was above 30000 nM.
`Cc1cccnc1NCc1cc2n(n1)CCN(c1ccc(F)cc1)C2=O` [Compound 160, 5-(4-fluorophenyl)-2-(((3-methylpyridin-2-yl)amino)methyl)-6,7-dihydropyrazolo[1,5-a]pyrazin-4(5H)-one]: the IC50 on rat mGlu3 (setting [1]) turned out to be 4700 nM. The remaining activity at 30 µM on rat mGlu3 stood at 0.18%. For the same molecule, at rat mGlu5, the “Fold selectivity (mGlu3 vs. mGlu5)” value is on record as above 6.3 and the EC50 is above 30000 nM.
`O=C1c2cc(CNc3ccc(OC(F)F)cc3F)nn2CCN1c1ncccc1F` [Compound 143, 2-(((4-(difluoromethoxy)-2-fluorophenyl)amino)methyl)-5-(3-fluoropyridin-2-yl)-6,7-dihydropyrazolo[1,5-a]pyrazin-4(5H)-one]: the IC50 at rat mGlu3 (setting [1]) stood at 950 nM. On rat mGlu3, the remaining activity at 30 µM is 1.31%. Also, on rat mGlu5, the “Fold selectivity (mGlu3 vs. mGlu5)” value was above 31 and the EC50 is above 30000 nM.
The matching figures for `COc1ccc(N(C)Cc2cc3n(n2)CCN(c2ccc(C)cc2)C3=O)cc1` [Compound 99, 2-(((4-methoxyphenyl)(methyl)amino)methyl)-5-(p-tolyl)-6,7-dihydropyrazolo[1,5-a]pyrazin-4(5H)-one]: 675 nM, 1.2%, above 44 and above 30000 nM.
On to `Cc1ccc(NCc2cc3n(n2)CCN(c2ccc(F)cc2)C3=O)c(F)c1` [Compound 35, 2-(((2-fluoro-4-methylphenyl)amino)methyl)-5-(4-fluorophenyl)-6,7-dihydropyrazolo[1,5-a]pyrazin-4(5H)-one], for which the IC50 at rat mGlu3 (setting [1]) worked out at 799 nM. The remaining activity at 30 µM on rat mGlu3 was found to be 1.68%. In addition, at rat mGlu5 (setting [4]), the Emax at 30 µM was determined as 97.4%. At rat mGlu5, the “Fold selectivity (mGlu3 vs. mGlu5)” value was 5.97 and the EC50 was found to be 4770 nM.
As to `Cc1cccc(NCc2cc3n(n2)CCN(c2ccc(F)cc2)C3=O)n1` [Compound 157, 5-(4-fluorophenyl)-2-(((6-methylpyridin-2-yl)amino)methyl)-6,7-dihydropyrazolo[1,5-a]pyrazin-4(5H)-one], the IC50 at rat mGlu3 (setting [1]) amounted to 3210 nM. Also, the remaining activity at 30 µM on rat mGlu3 is -0.19%. Moreover, at rat mGlu5, the “Fold selectivity (mGlu3 vs. mGlu5)” value is above 9.3 and the EC50 was above 30000 nM.
For the molecule `COc1ccc(N(C)Cc2cc3n(n2)CCN(c2ccc(F)cc2C)C3=O)cc1` [Compound 109, 5-(4-fluoro-2-methylphenyl)-2-(((4-methoxyphenyl)(methyl)amino)methyl)-6,7-dihydropyrazolo[1,5-a]pyrazin-4(5H)-one], the IC50 at rat mGlu3 (setting [1]) was 1320 nM. Besides, the remaining activity at 30 µM at rat mGlu3 was 2.13%. On rat mGlu5, the “Fold selectivity (mGlu3 vs. mGlu5)” value is above 22 and the EC50 is above 30000 nM.
For the molecule `COc1ccc(N(C)Cc2cc3n(n2)CCN(c2cc(F)cc(OC)c2)C3=O)cc1` [Compound 132, 5-(3-fluoro-5-methoxyphenyl)-2-(((4-methoxyphenyl)(methyl)amino)methyl)-6,7-dihydropyrazolo[1,5-a]pyrazin-4(5H)-one], on rat mGlu3 (setting [1]), the IC50 was found to be 1340 nM. The remaining activity at 30 µM at rat mGlu3 was 1.5%. At rat mGlu5, the “Fold selectivity (mGlu3 vs. mGlu5)” value is above 22 and the EC50 is above 30000 nM.

The values are drawn from patent US9676782B2, “Substituted pyrazolo[1,5-a]pyrazines as negative allosteric modulators of metabotropic glutamate receptor 3” (Vanderbilt University, priority 2014, dated 2017).
